IC50 data for 32 molecules are collected here from patent publication US11446287B2, “Compounds and methods for EP300 or CBP modulation and indications therefor” (Opna Immuno-Oncology SA, priority 2019, dated 2022).

The assay has as its target T1, Recombinant human EP300 containing the bromodomain (EP300-BD (1040-1161)) (Homo sapiens, UniProt Q09472).
T1 construct: Recombinant human EP300 bromodomain (EP300-BD (1040-1161)); made in house; host or cells: E. coli BL21-CodonPlus (DE3), modified pET vector
T1 sequence (Q09472 1040-1161): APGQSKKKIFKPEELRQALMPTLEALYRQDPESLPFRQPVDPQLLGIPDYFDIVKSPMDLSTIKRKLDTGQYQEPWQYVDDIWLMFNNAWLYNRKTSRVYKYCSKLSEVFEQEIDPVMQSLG
In words: EP300 Alphascreen binding assay. In short, it runs like this:
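Displacement of a biotinylated acetyl-K56 histone H3 peptide from the N-His bromodomain construct (1040-1161) measured by AlphaScreen proximity, beads at 7.5 μg/ml final, read 60 min after addition. Protein, peptide and compound first incubated 1 h at room temperature, pH 7.5 HEPES buffer; IC50 by four-parameter logistic fit.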
In general terms: In Alpha technology, singlet oxygen from a donor bead excites a nearby acceptor bead.
By IC50 is commonly meant the concentration that gives 50% inhibition. Consider `Cc1noc(C)c1-c1cnc2c(c1)c(-c1ccc(C(=O)O)cc1)cn2[C@@H](C)c1ccccn1` [P-0001, (S)-4-(5-(3,5-dimethylisoxazol-4-yl)-1-(1-(pyridin-2-yl)ethyl)-1H-pyrrolo[2,3-b]pyridin-3-yl)benzoic acid], for which the half-maximal inhibitory concentration (IC50) was 0.0001 to 1 µM.
The value for `Cc1noc(C)c1-c1cnc2c(c1)c(-c1ccc(C(=O)O)cc1)cn2C(c1ccccn1)C1CCCC1` (centres unmarked) [P-0002, 4-(1-(cyclopentyl(pyridin-2-yl)methyl)-5-(3,5-dimethylisoxazol-4-yl)-1H-pyrrolo[2,3-b]pyridin-3-yl)benzoic acid] was 0.0001 to 1 µM; that for `Cc1noc(C)c1-c1cnc2c(c1)c(-c1ccccc1)cn2C(c1ccccn1)C1CCCC1` (centres unmarked) [P-0003, 4-(1-(cyclopentyl(pyridin-2-yl)methyl)-3-phenyl-1H-pyrrolo[2,3-b]pyridin-5-yl)-3,5-dimethylisoxazole] was 8 to 1000 µM; that for `Cc1noc(C)c1-c1cnc2c(c1)c(-c1ccc(C(=O)O)cc1)cn2C(c1ccccn1)C1CCCCC1` (centres unmarked) [P-0004, 4-(1-(cyclohexyl(pyridin-2-yl)methyl)-5-(3,5-dimethylisoxazol-4-yl)-1H-pyrrolo[2,3-b]pyridin-3-yl)benzoic acid] was 0.0001 to 1 µM.
The value for `COC(=O)c1ccc(-c2cn(S(=O)(=O)c3ccc(C)cc3)c3ncc(-c4c(C)noc4C)cc23)cc1` [P-0005, methyl 4-(5-(3,5-dimethylisoxazol-4-yl)-1-tosyl-1H-pyrrolo[2,3-b]pyridin-3-yl)benzoate] was 8 to 1000 µM; that for `Cc1noc(C)c1-c1cnc2c(c1)c(-c1ccnc(C(=O)O)c1)cn2S(=O)(=O)c1ccccc1` [P-0055, 4-(5-(3,5-dimethylisoxazol-4-yl)-1-(phenylsulfonyl)-1H-pyrrolo[2,3-b]pyridin-3-yl)picolinic acid] was 0.0001 to 1 µM; that for `COc1cccc(Cn2cc(-c3cccc(C(=O)O)c3)c3cc(-c4c(C)noc4C)cnc32)c1` [P-0056, 3-(5-(3,5-dimethylisoxazol-4-yl)-1-(3-methoxybenzyl)-1H-pyrrolo[2,3-]pyridin-3-yl)benzoic acid] was 0.0001 to 1 µM.
The result for `COc1cccc(Cn2cc(-c3ccnc(C(=O)O)c3)c3cc(-c4c(C)noc4C)cnc32)c1` [P-0057, 4-(5-(3,5-dimethylisoxazol-4-yl)-1-(3-methoxybenzyl)-1H-pyrrolo[2,3-b]pyridin-3-yl)picolinic acid] reads 0.0001 to 1 µM.
On to `Cc1noc(C)c1-c1cnc2c(c1)c(-c1cccc(C(=O)O)c1)cn2C(C1CC1)C1CC1` [P-0058, 3-(1-(dicyclopropylmethyl)-5-(3,5-dimethylisoxazol-4-yl)-1H-pyrrolo[2,3-b]pyridin-3-yl)benzoic acid], for which the IC50 was 0.0001 to 1 µM.
`Cc1noc(C)c1-c1cnc2c(c1)c(-c1cccc(C(=O)O)c1)cn2Cc1cccc(OC(F)(F)F)c1` [P-0059, 3-(5-(3,5-dimethylisoxazol-4-yl)-1-(3-(trifluoromethoxy)benzyl)-1H-pyrrolo[2,3-b]pyridin-3-yl)benzoic acid]: the IC50 was in the range of 0.0001 to 1 µM.
In the case of `Cc1noc(C)c1-c1cnc2c(c1)c(-c1cccc(C(=O)O)c1)cn2Cc1cccc(F)c1` [P-0060, 3-(5-(3,5-dimethylisoxazol-4-yl)-1-(3-fluorobenzyl)-1H-pyrrolo[2,3-b]pyridin-3-yl)benzoic acid], the IC50 was in the range of 0.0001 to 1 µM.
For the molecule `Cc1noc(C)c1-c1cnc2c(c1)c(-c1cccc(C(=O)O)c1)cn2Cc1cccc(Cl)c1` [P-0061, 3-(1-(3-chlorobenzyl)-5-(3,5-dimethylisoxazol-4-yl)-1H-pyrrolo[2,3-b]pyridin-3-yl)benzoic acid], the IC50 lay within 0.0001 to 1 µM.
The result for `Cc1cccc(Cn2cc(-c3cccc(C(=O)O)c3)c3cc(-c4c(C)noc4C)cnc32)c1` [P-0062, 3-(5-(3,5-dimethylisoxazol-4-yl)-1-(3-methylbenzyl)-1H-pyrrolo[2,3-b]pyridin-3-yl)benzoic acid] reads 0.0001 to 1 µM; that for `Cc1noc(C)c1-c1cnc2c(c1)c(-c1cccc(C(=O)O)c1)cn2Cc1cccc(C(F)(F)F)c1` [P-0063, 3-(5-(3,5-dimethylisoxazol-4-yl)-1-(3-(trifluoromethyl)benzyl)-1H-pyrrolo[2,3-b]pyridin-3-yl)benzoic acid], 0.0001 to 1 µM; that for `Cc1noc(C)c1-c1cnc2c(CC3CCC3)cn(-c3ccc(C(=O)O)cc3OC(F)F)c2c1` [P-0064, 4-(3-(cyclobutylmethyl)-6-(3,5-dimethylisoxazol-4-yl)-1H-pyrrolo[3,2-b]pyridin-1-yl)-3-(difluoromethoxy)benzoic acid], 0.0001 to 1 µM.
Regarding `Cc1noc(C)c1-c1cnc2c(CC3CC3)cn(-c3ccnc(C(=O)O)c3)c2c1` [P-0065, 4-(3-(cyclopropylmethyl)-6-(3,5-dimethylisoxazol-4-yl)-1H-pyrrolo[3,2-b]pyridin-1-yl)picolinic acid], the concentration for half-maximal inhibition (IC50) fell in the range of 0.0001 to 1 µM.
The result for `Cc1noc(C)c1-c1cnc2c(CC3CCC3)cn(-c3ccc(C(=O)O)cc3OC(F)(F)F)c2c1` [P-0066, 4-(3-(cyclobutylmethyl)-6-(3,5-dimethylisoxazol-4-yl)-1H-pyrrolo[3,2-b]pyridin-1-yl)-3-(trifluoromethoxy)benzoic acid] reads 0.0001 to 1 µM; that for `COc1cc(C(=O)O)cc(OC)c1-n1cc(CC2CCC2)c2ncc(-c3c(C)noc3C)cc21` [P-0067, 4-(3-(cyclobutylmethyl)-6-(3,5-dimethylisoxazol-4-yl)-1H-pyrrolo[3,2-b]pyridin-1-yl)-3,5-dimethoxybenzoic acid], 0.0001 to 1 µM; that for `Cc1noc(C)c1-c1cnc2c(CC3CCC3)cn(-c3ccc(S(C)(=O)=O)c(F)c3)c2c1` [P-0068, 4-(3-(cyclobutylmethyl)-1-(3-fluoro-4-(methylsulfonyl)phenyl)-1H-pyrrolo[3,2-b]pyridin-6-yl)-3,5-dimethylisoxazole], 0.0001 to 1 µM.
The result for `Cc1noc(C)c1-c1cnc2c(c1)c(C#CC(=O)O)cn2Cc1ccccc1` [P-0069, 3-(1-benzyl-5-(3,5-dimethylisoxazol-4-yl)-1H-pyrrolo[2,3-b]pyridin-3-yl)propiolic acid] reads 0.0001 to 1 µM; that for `Cc1noc(C)c1-c1cnc2c(c1)c(-c1ccc(C(=O)O)cc1OC(F)(F)F)cn2[C@@H](C)c1ccccn1` [P-0070, (S)-4-(5-(3,5-dimethylisoxazol-4-yl)-1-(1-(pyridin-2-yl)ethyl)-1H-pyrrolo[2,3-b]pyridin-3-yl)-3-(trifluoromethoxy)benzoic acid], 0.0001 to 1 µM; that for `Cc1noc(C)c1-c1cnc2c(c1)c(-c1ccc(C(=O)O)cc1OC(F)F)cn2[C@@H](C)c1ccccn1` [P-0071, (S)-3-(difluoromethoxy)-4-(5-(3,5-dimethylisoxazol-4-yl)-1-(1-(pyridin-2-yl)ethyl)-1H-pyrrolo[2,3-b]pyridin-3-yl)benzoic acid], 0.0001 to 1 µM.
For `Cc1noc(C)c1-c1cnc2c(c1)c(-c1cccc(C(=O)O)c1)cn2C(C1CCC1)C1CCC1` [P-0072, 3-(1-(dicyclobutylmethyl)-5-(3,5-dimethylisoxazol-4-yl)-1H-pyrrolo[2,3-b]pyridin-3-yl)benzoic acid], the IC50 fell in the range of 0.0001 to 1 µM.
The value for `Cc1noc(C)c1-c1cnc2c(c1)c(-c1cccc(C(=O)O)c1)cn2C(c1ccccn1)C1CCC1` (centres unmarked) [P-0073, 3-(1-(cyclobutyl(pyridin-2-yl)methyl)-5-(3,5-dimethylisoxazol-4-yl)-1H-pyrrolo[2,3-b]pyridin-3-yl)benzoic acid] was 0.0001 to 1 µM; that for `Cc1noc(C)c1-c1cnc2c(CC3CCC3)cn(-c3c(Cl)cc(C(=O)O)cc3Cl)c2c1` [P-0074, 3,5-dichloro-4-(3-(cyclobutylmethyl)-6-(3,5-dimethylisoxazol-4-yl)-1H-pyrrolo[3,2-b]pyridin-1-yl)benzoic acid] was 0.0001 to 1 µM; that for `Cc1cc(C(=O)O)cnc1-n1cc(CC2CCC2)c2ncc(-c3c(C)noc3C)cc21` [P-0075, 6-(3-(cyclobutylmethyl)-6-(3,5-dimethylisoxazol-4-yl)-1H-pyrrolo[3,2-b]pyridin-1-yl)-5-methylnicotinic acid] was 0.0001 to 1 µM.
The result for `Cc1noc(C)c1-c1cnc2c(CC3CCC3)cn(-c3ccc(C#N)cc3)c2c1` [P-0076, 4-(3-(cyclobutylmethyl)-6-(3,5-dimethylisoxazol-4-yl)-1H-pyrrolo[3,2-b]pyridin-1-yl)benzonitrile] reads 1 to 8 µM; that for `Cc1noc(C)c1-c1cnc2c(CC3CCC3)cn(-c3ccnc(C#N)c3)c2c1` [P-0077, 4-(3-(cyclobutylmethyl)-6-(3,5-dimethylisoxazol-4-yl)-1H-pyrrolo[3,2-b]pyridin-1-yl)picolinonitrile], 0.0001 to 1 µM.
The value for `Cc1noc(C)c1-c1cnc2c(c1)c(-c1cccc(C(=O)NC#N)c1)cn2Cc1ccccc1` [P-0078, 3-(1-benzyl-5-(3,5-dimethylisoxazol-4-yl)-1H-pyrrolo[2,3-b]pyridin-3-yl)-N-cyanobenzamide] was 0.0001 to 1 µM; that for `Cc1noc(C)c1-c1cnc2c(c1)c(-c1cccc(C(=O)NO)c1)cn2Cc1ccccc1` [P-0079, 3-(1-benzyl-5-(3,5-dimethylisoxazol-4-yl)-1H-pyrrolo[2,3-b]pyridin-3-yl)-N-hydroxybenzamide] was 0.0001 to 1 µM; that for `Cc1noc(C)c1-c1cnc2c(c1)c(-c1ccc(C(=O)O)cc1)cn2C(C)c1ccccn1` (centres unmarked) [P-0080, 4-(5-(3,5-dimethylisoxazol-4-yl)-1-(1-(pyridin-2-yl)ethyl)-1H-pyrrolo[2,3-b]pyridin-3-yl)benzoic acid] was 1 to 8 µM.
On to `Cc1noc(C)c1-c1cnc2c(c1)c(-c1cccc(S(N)(=O)=O)c1)cn2Cc1ccccc1` [P-0081, 3-(1-benzyl-5-(3,5-dimethylisoxazol-4-yl)-1H-pyrrolo[2,3-b]pyridin-3-yl)benzenesulfonamide], for which the IC50 is 0.0001 to 1 µM.
